Measurements from patent US7115707B2, “Amino acid sequences capable of facilitating penetration across a biological barrier” (Chiasma, Inc., priority 2002, dated 2006).
“And” between values parts separate entries of the source, which are not always exact repeats. Equal values may be shown once.

Columns and labels:
[1] = Insulin translocation with HMIC as counter ion: blood glucose levels after i.p. or rectal administration (FIG. 3); format: in vivo, male BALB/c mice; conditions: 70 ul/mouse, 0.2 IU insulin
Description: SEQ ID NO: 36 (also called IBW-002V2) and SEQ ID NO: 16 (also called IBW-001) were hydrophobized via acylation of the free amino groups of the two lysine residues at the C-terminus of the penetrating peptides with a myristoyl. Acylation with myristoyl was achieved by incubating the peptide with myristoyl chloride in a molar ratio of 1:10, under basic pH conditions in the presence of appropriate solvents (benzyl benzoate and di-methyl formamide, with 1% bicarbonate). The hydrophobized peptides were then incorporated into the penetration composition, which further contained insulin, and the counter cation 1-hexyl-3-methylimidazolium chloride (HMIC). Additional components of the penetration composition are specified in Table 7.
Eight male BALB/c mice, 9–10 weeks old, were deprived of food, 18 hours prior to the experiment. The animals were divided into 4 groups. Each preparation was administered to 2 groups of mice either i.p. (70 ul/mouse, containing 0.2 IU insulin) or rectal (70 ul/mouse, containing 0.2 IU insulin). Blood glucose levels were measured at various time intervals post administration, in blood samples drawn from the tip of the tail. Glucose levels were plotted against time post insulin administration (See FIG. 3).

[2] = Heparin translocation: clotting time after rectal administration of penetration composition; format: in vivo, male BALB/c mice; conditions: for Clotting time, measured at follow times after injection: 5 min / Clotting time, measured at follow times after injection: 15 min / Clotting time, measured at follow times after injection: 30 min / Clotting time, measured at follow times after injection: 60 min / Clotting time, measured at follow times after injection: 90 min / Clotting time, measured at follow times after injection: 120 min / Clotting time, measured at follow times after injection: 150 min / Clotting time, measured at follow times after injection: 0: rectal 100 μl/mouse, heparin 10 mg/ml composition, one mouse per line; for Clotting time, measured at follow times after injection: 60 min / Clotting time, measured at follow times after injection: 90 min / Clotting time, measured at follow times after injection: 120 min / Clotting time, measured at follow times after injection: 150 min: * = clotting appeared but did not progress
Description: SEQ ID NO: 36 was hydrophobized via acylation of the free amino groups of the two lysine residues at the C-terminus of the penetrating peptide with a myristoyl. Acylation with myristoyl was achieved by incubating the peptide with myristoyl chloride in a molar ratio of 1:10, under basic pH conditions in the presence of appropriate solvents (benzyl benzoate and di-methyl formamide, with 1% bicarbonate). The hydrophobized peptide was then incorporated into the penetration composition, which further contained heparin, and the counter cation 1-butyl-3-methylimidazolium chloride (BMIC). Additional components of the penetration composition are specified in Table 5.
Four male BALB/c mice, 9–10 weeks old, were deprived of food, 18 hours prior to the experiment. The mice were anesthetized by i.p. injection of 0.05 ml of a mixture of 0.15 ml xylazine+0.85 ml of ketamin. The penetration composition was then rectally administered to the mice, 100μl/mouse, using a plastic tip covered with a lubricant. Penetration was assessed via measurement of clotting time, at different time intervals after heparin administration. Five minutes post administration the tip of the tail was cut and a 50 μl blood sample was drawn into a glass capillary. The capillary was broken at different time intervals, until clot formation was observed. This was repeated at 15, 30, 60, 90, 120 and 150 minutes post administration. The animals were subsequently sacrificed.
In similar experiments, a control peptide (SEQ ID NO:16), lacking the penetrating peptide-sequence, was similarly hydrophobized and incorporated into the penetration composition of Table 5 and then rectally administered to the mice.

[3] = Insulin translocation with BKC as counter ion: blood glucose levels after i.p. or rectal administration (FIG. 4, Table 9); format: in vivo, male SD rats; conditions: rectal administration, rats, BKC counter ion (FIG. 4)
Description: SEQ ID NO: 36 (also called IBW-002V2) was hydrophobized via acylation of the free amino groups of the two lysine residues at the C-terminus of the penetrating peptide with a myristoyl. Acylation with myristoyl was achieved by incubating the peptide with myristoyl chloride in a molar ratio of 1:10, under basic pH conditions in the presence of appropriate solvents (benzyl benzoate and di-methyl formamide, with 1% bicarbonate). The hydrophobized peptide was then incorporated into the penetration composition, which further contained a lyophilizate of (1) insulin, (2) the counter cation Benzalkonium Chloride (BKC), and (3) phytic acid at a ratio of 1:0.5:0.5. Additional components of the penetration composition are specified in Table 8.
Twelve male SD rats, 160–190 gr, were deprived of food, 18 hours prior to the experiment. The animals were divided into groups. The preparations were administered as follows: Rats #1,2-rectal PBS 200 ul, rats #3,4-rectal 200 ul penetration composition as specified above without peptide (5 IU insulin), rat #5-i.p. 200 ul penetration composition with peptide (1 IU insulin), rats #6,7-rectal 200 ul penetration composition with peptide (5 IU insulin). Blood glucose levels were measured at various time intervals post administration, in blood samples drawn from the tip of the tail. Glucose levels were plotted against time post insulin administration (See FIG. 4).

Substance | blood glucose levels ([1]; i.p.) | blood glucose levels ([1]; rectal) | Clotting time, measured at follow times after injection: 5 min [2] | Clotting time, measured at follow times after injection: 15 min [2] | Clotting time, measured at follow times after injection: 30 min [2] | Clotting time, measured at follow times after injection: 60 min [2] | Clotting time, measured at follow times after injection: 90 min [2] | Clotting time, measured at follow times after injection: 120 min [2] | Clotting time, measured at follow times after injection: 150 min [2] | average clotting time ([2]; rectal, heparin composition of Table 5, compared to the full conjugate of the penetrating peptide) | Clotting time, measured at follow times after injection: 0 [2] | blood glucose levels [3]
GGKGGK (Linker) [SEQ ID NO: 16, reference compound] | significant drop | No change | 1′ | 1′ | 2′ | 5′ | 4′ | 2′ | 3′ | only slightly elongated | 1′ | –
AcMYYDITLALAGICQSARLVQQLAGGGKGGKNH2 (Ac-MYYDITLALAGICQSARLVQQLAGGGKGGK-NH2) [SEQ ID NO: 36, penetrating peptide] | dropped gradually and significantly | dropped gradually and significantly | 1′ (2×) and 2′ (2×) | 1.5′ and 3′ and 1′ (2×) | 1.5′ (2×) and 2′ and 3′ | 8′* and 9′* and 2.5′ and 6′ | 9′* (2×) and 7′* and 5′ | 15′* and 7′* and 3′ and 8′* | 17′* and 9′* and 4′ and 6′ | – | 1.5′ (2×) and 1′ and 2.5′ | dropped gradually and significantly
